Measured values from ChEMBL document CHEMBL1201862, “PubChem BioAssay data set” (2004).
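Tested at 5 concentrations; 48 h exposure; 96-well plates; endpoints linearly interpolated, else capped at highest concentration. At the GI50, growth is halved.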 Calls of active or inactive are those of the source. No stated cut-off is given here; in the data, active = GI50 up to about 1.1 µM and inactive = higher.

Experiments:
Experiment in all cases: inhibition of tumour cell growth, NCI panel, 48 h
TK-10 = system: TK-10
BT-549 = system: BT-549
MCF7 = system: MCF7
PC-3 = system: PC-3
SK-MEL-2 = system: SK-MEL-2
CCRF-CEM = system: CCRF-CEM
SF-268 = system: SF-268
HCT-15 = system: HCT-15
HOP-92 = system: HOP-92
OVCAR-5 = system: OVCAR-5
NCI-H226 = system: NCI-H226
NCI/ADR-RES = system: NCI/ADR-RES
OVCAR-4 = system: OVCAR-4
OVCAR-8 = system: OVCAR-8
MDA-MB-231 = system: MDA-MB-231
ACHN = system: ACHN
M14 = system: M14
LOX IMVI = system: LOX IMVI
U-251 = system: U-251
CAKI-1 = system: CAKI-1
HOP-62 = system: HOP-62
KM12 = system: KM12
RPMI-8226 = system: RPMI-8226
SW-620 = system: SW-620
EKVX = system: EKVX
SF-295 = system: SF-295
A498 = system: A498
DU-145 = system: DU-145
NCI-H522 = system: NCI-H522
IGROV-1 = system: IGROV-1
MDA-MB-435 = system: MDA-MB-435
SF-539 = system: SF-539
COLO 205 = system: COLO 205
RXF 393 = system: RXF 393
786-0 = system: 786-0
NCI-H23 = system: NCI-H23
HT-29 = system: HT-29
SR = system: SR
MOLT-4 = system: MOLT-4
A549 = system: A549
Malme-3M = system: Malme-3M
SK-MEL-5 = system: SK-MEL-5
K562 = system: K562
HCT-116 = system: HCT-116
SNB-19 = system: SNB-19
NCI-H460 = system: NCI-H460
Hs-578T = system: Hs-578T
UACC-62 = system: UACC-62
SK-MEL-28 = system: SK-MEL-28
SK-OV-3 = system: SK-OV-3
HCC 2998 = system: HCC 2998
OVCAR-3 = system: OVCAR-3
MDA-N = system: MDA-N
SN12C = system: SN12C
SNB-75 = system: SNB-75
UACC-257 = system: UACC-257
T47D = system: T47D

In the case of `O=c1c2ccc(Cl)cc2oc2c(CSc3ccccc3)cccc12`, the GI50 (TK-10) is reported as > 55.3 µM (inactive), the GI50 (BT-549) is reported as > 43 µM (inactive) and the GI50 (MCF7) is reported as 29.1 µM (inactive). The GI50 (PC-3) was > 39.5 µM (inactive), the GI50 (SK-MEL-2) was > 49.1 µM (inactive) and the GI50 (CCRF-CEM) was 10.1 µM (inactive). The GI50 (SF-268) was > 100 µM (inactive), the GI50 (HCT-15) was 28.4 µM and the GI50 (HOP-92) was > 39.4 µM (inactive). The GI50 (OVCAR-5) was > 62.8 µM (inactive), the GI50 (NCI-H226) was 46.3 µM (inactive) and the GI50 (NCI/ADR-RES) was > 50.2 µM (inactive). The GI50 (OVCAR-4) was > 59.4 µM (inactive), the GI50 (OVCAR-8) was 62.7 µM (inactive) and the GI50 (MDA-MB-231) was > 63 µM (inactive). For the same molecule, the GI50 (ACHN) was > 39.2 µM (inactive), the GI50 (M14) was > 42.5 µM (inactive) and the GI50 (LOX IMVI) was 9.57 µM (inactive). For the same molecule, the GI50 (U-251) was 39.9 µM (inactive), the GI50 (CAKI-1) was > 38.5 µM (inactive) and the GI50 (HOP-62) was > 55 µM (inactive). For the same molecule, the GI50 (KM12) was 21.6 µM (inactive), the GI50 (RPMI-8226) was 13.2 µM (inactive) and the GI50 (SW-620) was 21.5 µM (inactive). For the same molecule, the GI50 (EKVX) was > 50.4 µM (inactive), the GI50 (SF-295) was > 43.9 µM (inactive) and the GI50 (A498) was 25.7 µM (inactive). For the same molecule, the GI50 (DU-145) was 70.5 µM (inactive), the GI50 (NCI-H522) was > 32.5 µM (inactive) and the GI50 (IGROV-1) was > 24 µM (inactive). The GI50 (MDA-MB-435) was > 21.9 µM (inactive), the GI50 (SF-539) was 24.5 µM (inactive) and the GI50 (COLO 205) was > 70 µM (inactive). For the same molecule, the GI50 (RXF 393) was > 100 µM (inactive), the GI50 (786-0) was > 61.5 µM (inactive) and the GI50 (NCI-H23) was 28.4 µM (inactive). The GI50 (HT-29) was 95.9 µM (inactive), the GI50 (SR) was 9.64 µM (inactive) and the GI50 (MOLT-4) was 15.8 µM (inactive). For the same molecule, the GI50 (A549) was > 32.4 µM (inactive), the GI50 (Malme-3M) was 14.2 µM (inactive) and the GI50 (SK-MEL-5) was > 46.6 µM (inactive). For the same molecule, the GI50 (K562) was 15.3 µM (inactive), the GI50 (HCT-116) was 28.2 µM (inactive) and the GI50 (SNB-19) was > 45.5 µM (inactive). The GI50 (NCI-H460) was 23.8 µM (inactive), the GI50 (Hs-578T) was > 100 µM (inactive) and the GI50 (UACC-62) was > 41.4 µM (inactive). The GI50 (SK-MEL-28) was > 53.1 µM (inactive), the GI50 (SK-OV-3) was > 55 µM (inactive) and the GI50 (HCC 2998) was > 54.1 µM (inactive). For the same molecule, the GI50 (OVCAR-3) was > 40.8 µM (inactive), the GI50 (MDA-N) was 31.7 µM (inactive) and the GI50 (SN12C) was 43.6 µM (inactive). For the same molecule, the GI50 (SNB-75) was > 33.2 µM (inactive), the GI50 (UACC-257) was > 57.9 µM (inactive) and the GI50 (T47D) was 61.7 µM (inactive).
